Key:
Assay type in all cases: cell-based
[1] = tested on: MCF-7-Dx (human mammary carcinoma); test: Cytotoxicity test on resistant tumour cell lines, tested compound alone; conditions: Homo sapiens, MCF7/DX, 24 h incubation, survival after 48 h; ± SD
Experimental: (§1) This test was used to evaluate the survival of human cell lines resistant to doxorubicin (about 100 times) and cross-resistant to daunorubicin, actinomycin D, mitoxantrone, vincristine, vinblastin, taxol, colchicine, and etoposide.
(§2) The following cell lines were used: MCF-7-Dx (human mammary carcinoma), LoVo-Dx (human colon adenocarcinoma), MES-SA Dx (human uterine sarcoma).
(§3) Before using the association doxorubicin-tested compound, the cytotoxicity of the cells was evaluated with the tested compound (alone) as follows: the cells were incubated with the compound, at scalar concentrations (500 μM÷0.97 μM), for 24 hours; the compound was then removed and cell survival was evaluated after 48 hours with the above-mentioned sulforodamine B test. The antiproliferative activity of the compounds was evaluated in terms of IC50 (concentration of the compound that inhibits 50% of cell survival) processed with the above-mentioned curve-fitting program.

[2] = tested on: LoVo-Dx (human colon adenocarcinoma); test: as above; conditions: Homo sapiens, LoVo/DX; 24 h incubation, survival after 48 h; ± SD
Experimental: as §1, §2, §3

[3] = tested on: MES-SA Dx (human uterine sarcoma); test: as above; conditions: Homo sapiens, MES-SA Dx; 24 h incubation, survival after 48 h; ± SD
Experimental: as §1, §2, §3

[4] = tested on: HL60 cells (acute promyelocytic leukaemia); test: Flow cytofluorimetric analysis of cell cycle; conditions: for G0/G1 / G2/M / S: day 3
Experimental: (§4) The second line used was the HL60 cell line which responds to ATRA (but is less sensitive than the NB4 cell line).
(§5) The HL60 and NB4 cells were seeded at a density of 150,000 cells/ml in RPMI 1640 medium containing 10% foetal calf serum, and were treated with the tested compounds in the presence and absence of suboptimal doses of ATRA (5–10 nM for NB4 and 0.5 μM for HL60, respectively) in the dark, and returned to the incubator for 3 days without ever replacing the culture medium.
To assess the effect of the tested compounds on the various phases of the cell cycle, on the third day of treatment 500,000 cells were harvested, centrifuged at 1,000 rpm for 10 minutes, washed twice in PBS w/o (PBS without calcium and magnesium) and fixed in a solution of 50% PBS w/o+50% methanol/acetone (1:4 v/v) for at least 1 hour; the cells were then centrifuged as described, washed in PBS w/o and centrifuged again.
200 μl of propidium iodide 100 μg/ml and 200 μl of RNase 150 kU/mg were then added to the cell pellet.
After a 30-min incubation in the dark at room temperature, the samples were analysed by flow cytofluirometry.

[5] = tested on: MCF-7 (human mammary carcinoma); test: Cytotoxicity test on sensitive tumour cell lines (sulforodamine B test); conditions: Homo sapiens, MCF7; 24 h incubation, survival after 48 h; ± S.D.; read-out: antiproliferative activity IC50, MCF-7
Experimental: (§6) This test was used to evaluate the survival of the human cell lines MCF-7 (human mammary carcinoma), LoVo (human colon adenocarcinoma), and MES-SA (human uterine sarcoma). The tumour cells were incubated with the compound, at scalar concentrations, (500 μM÷0.97 μM) for 24 hours; the compound was then removed and cell survival was evaluated after 48 hours using the sulforodamine B test (J. Natl. Cancer Inst. 82, 1107–1112). The antiproliferative activity of the compounds was evaluated in terms of the IC50 (concentration of the molecule that inhibits 50% of cell survival) processed with a curve-fitting program (Am. J. Physiol. 1978., 235, E97–E102) and expressed as μM±S.D.

[6] = tested on: LoVo (human colon adenocarcinoma); test: as above; conditions: Homo sapiens, LoVo; 24 h incubation, survival after 48 h; ± S.D.; read-out: antiproliferative activity IC50, Lovo
Experimental: as §6

[7] = tested on: MES-SA (human uterine sarcoma); test: as above; conditions: Homo sapiens, MES-SA; 24 h incubation, survival after 48 h; ± S.D.; read-out: antiproliferative activity IC50, Mes-Sa
Experimental: as §6

[8] = tested on: NB4 cells (acute promyelocytic leukaemia); test: Cell differentiation by reduction of nitroblue tetrazolium (NBT), with suboptimal ATRA; conditions: combined with suboptimal doses of ATRA, NBT
Experimental: The first line used was the NB4 cell line, bearing the t(15;17) chromosomal translocation which generates the fusion protein PML/RARα. This line is very sensitive to the differentiative action of pharmacological doses of ATRA (10^−7–10^−6 M).
as §5
(§7) To analyse the differentiative effect of the tested compounds vs ATRA, on the third day of treatment 500,000 viable cells were harvested from each sample, centrifuged for 10 minutes at 1.000 rpm and resuspended in 1 ml of RPMI 1640 medium containing 10% foetal calf serum, 1 mg/ml of nitroblue tetrazolium (NBT) and 100 ng of PMA (phorbol 12-myristate 13-acetate).
(§8) The cells thus resuspended were incubated in the dark at 37° C. for 60 minutes.
(§9) At the end of the incubation, the cell suspension was centrifuged for 10 minutes at 10,000 rpm; the pellet obtained was then resuspended in 1 ml of PBS containing 10% Triton X-100 and sonicated to lysis.
(§10) Spectrophotometric readings of the samples were then taken at a wavelength of 540 nm: samples containing differentiated cells shifted towards a violet colour, whereas control samples and/or samples with non-differentiated cells were colourless or, at any rate, much less intensely coloured.
(§11) The AC50 (Activating Concentration) is the concentration at which the tested compound induces 50% of cell differentiation.
(§12) Fold Induction is the increase in the differentiation value of the cell sample treated with the tested compound +ATRA vs the value of the cell sample treated with ATRA alone. This value provides an indication of the ability (potency) of the tested compound to enhance ATRA induced cell differentiation.

[9] = tested on: HL60 cells (acute promyelocytic leukaemia); test: as above; conditions: combined with suboptimal doses of ATRA
Experimental: as §4, §5, §7, §8, §9, §10, §11, §12

fold induction (differentiation, compound + ATRA vs ATRA alone) [8]: 1.85
fold induction (differentiation, compound + ATRA vs ATRA alone) [9]: 2.2
Compound: OCCCCC(c1c[nH]c2cc3c(cc12)OCO3)c1c[nH]c2cc3c(cc12)OCO3 [ST 1422, 5-hydroxy-1,1-di-(5,6-methylenedioxy-indol-3-yl)-pentane]
IC50 [1]: 40.1 ± 1.2 µM
IC50 [2]: 22.3 ± 2.9 µM
IC50 [3]: 73.3 ± 2.7 µM
G0/G1 ([4]; compound 1 μM + ATRA 0.5 μM): 66.8
G2/M ([4]; compound 1 μM + ATRA 0.5 μM): 11.0
S ([4]; compound 1 μM + ATRA 0.5 μM): 22.2
G0/G1 ([4]; compound 5 μM + ATRA 0.5 μM): 65.1
G2/M ([4]; compound 5 μM + ATRA 0.5 μM): 11.4
S ([4]; compound 5 μM + ATRA 0.5 μM): 23.5
G0/G1 ([4]; compound 10 μM + ATRA 0.5 μM): 62.5
G2/M ([4]; compound 10 μM + ATRA 0.5 μM): 12.5
S ([4]; compound 10 μM + ATRA 0.5 μM): 25.0
G0/G1 ([4]; compound 50 μM + ATRA 0.5 μM): 75.7
G2/M ([4]; compound 50 μM + ATRA 0.5 μM): 13.8
S ([4]; compound 50 μM + ATRA 0.5 μM): 10.5
effect of the compound alone on induction of apoptosis (in words) ([4]; compound alone): showed no effect on the induction of apoptosis
G0/G1 ([4]; compound alone 1 μM): 56.2
G2/M ([4]; compound alone 1 μM): 10.0
S ([4]; compound alone 1 μM): 33.8
G0/G1 ([4]; compound alone 5 μM): 57.6
G2/M ([4]; compound alone 5 μM): 10.4
S ([4]; compound alone 5 μM): 32.0
G0/G1 ([4]; compound alone 10 μM): 57.8
G2/M ([4]; compound alone 10 μM): 10.5
S ([4]; compound alone 10 μM): 31.7
G0/G1 ([4]; compound alone 50 μM): 65.8
G2/M ([4]; compound alone 50 μM): 16.4
S ([4]; compound alone 50 μM): 17.8
IC50 [5]: 43.1 ± 1.2 µM
IC50 [6]: 23 ± 4.4 µM
IC50 [7]: 79.3 ± 7.8 µM
AC50 ([8]; Homo sapiens, NB-4, 72 h, 3 days, read-out: AC50 (concentration at which the tested compound induces 50% of cell differentiation)): 9.8 ± 0.1 µM
AC50 ([9]; Homo sapiens, HL-60, 72 h, 3 days, read-out: AC50 (concentration at which the tested compound induces 50% of cell differentiation)): 13.6 ± 2.6 µM

— patent US7084166B2, “Bis-heterocyclic compounds with antitumour and chemosensitising activity” (Sigma-Tau Industrie Farmaceutichee Riunite S.p.A., priority 2000, dated 2006)
